# Results from patent US20260125400A1, “TYK2 DEGRADERS AND USES THEREOF” (Kymera Therapeutics, Inc., priority 2023, published 2026).
# Target: T1, TYK2 (Homo sapiens, UniProt P29597)
# T1 construct: Degradation of TYK2 in cells was quantitatively measured using Meso Scale Discovery (MSD) technology; endogenous in cells; host or cells: OCI-LY10
# Test: TYK2 MSD degradation in OCI-LY10 cells
# Assay type: cell-based
# Details: TYK2 degradation in OCI-LY10 cells, 4 to 24 hours incubation
# Method: Example 7. TYK2 MSD Degradation
# Degradation of TYK2 in cells was quantitatively measured using Meso Scale Discovery (MSD) technology. OCI-LY10 cells were seeded in 96-well plates with a density of 0.4 million cells per well in 100 μl fresh media. Compounds were then added to the assay plates with a final top concentration of 1 to 10 μM in a 1:3 dilution series with total of 9 doses. The assay plates were then incubated for 4 to 24 hours at 37° C. under […]. The assay plates were then centrifuged for 5 minutes, and the cell pellets were treated with 100 μl/well RIPA lysis buffer (Boston Bioproducts, BP-115D) with protease and phosphatase inhibitors (Roche, 05892791001 and 04906837001). To prepare MSD assay plates (MSD, L15XA), the plates were coated with the capture antibody (Santa Cruz Biotechnology, SC-5271) in PBS, at 40 μl/well. The plates were then incubated overnight at 4° C., washed 3 times with 150 μl/well TBST buffer (Cell Signaling Technology, 9997S) and blocked with 150 μl/well blocking buffer (MSD, R93BA-4). Cell lysates were then added to MSD assay plates and the plates were incubated at room temperature for 1 hour. The plates were then washed 3 times with 150 μl/well TBST buffer and 25 μl/well primary detection antibody (Cell Signaling Technology, #9312). The assay plates were then incubated at room temperature for 1 hour, washed 3 times with 150 μl/well TBST buffer, and 25 μl/well secondary detection antibody, SULFO-TAG anti-rabbit antibody (MSD, R32AB-1) were added. The assay plates were then incubated at room temperature for 1 hour, washed 3 times with 150 μl/well TB ST buffer, and 150 μl/well MSD reading buffer (MSD, R92TC-2) were added. The plates were then analyzed by an MSD reader. The data was analyzed by GraphPad Prism and the dose dependent TYK2 degradation was fit using the four-parameter inhibitor vs. response nonlinear regression.
# The letter codes for TYK2 DC50 include: A (<1 nM); B (i to <10 nM); C (10 to 100 nM); D (>100 nM); and E (not tested). The letter codes for TYK2 Dmax % include: A (>90%); B (90 to >75%); C (75 to 50%); D (<50%); and E (not tested).
# T1 sequence (P29597 whole entry): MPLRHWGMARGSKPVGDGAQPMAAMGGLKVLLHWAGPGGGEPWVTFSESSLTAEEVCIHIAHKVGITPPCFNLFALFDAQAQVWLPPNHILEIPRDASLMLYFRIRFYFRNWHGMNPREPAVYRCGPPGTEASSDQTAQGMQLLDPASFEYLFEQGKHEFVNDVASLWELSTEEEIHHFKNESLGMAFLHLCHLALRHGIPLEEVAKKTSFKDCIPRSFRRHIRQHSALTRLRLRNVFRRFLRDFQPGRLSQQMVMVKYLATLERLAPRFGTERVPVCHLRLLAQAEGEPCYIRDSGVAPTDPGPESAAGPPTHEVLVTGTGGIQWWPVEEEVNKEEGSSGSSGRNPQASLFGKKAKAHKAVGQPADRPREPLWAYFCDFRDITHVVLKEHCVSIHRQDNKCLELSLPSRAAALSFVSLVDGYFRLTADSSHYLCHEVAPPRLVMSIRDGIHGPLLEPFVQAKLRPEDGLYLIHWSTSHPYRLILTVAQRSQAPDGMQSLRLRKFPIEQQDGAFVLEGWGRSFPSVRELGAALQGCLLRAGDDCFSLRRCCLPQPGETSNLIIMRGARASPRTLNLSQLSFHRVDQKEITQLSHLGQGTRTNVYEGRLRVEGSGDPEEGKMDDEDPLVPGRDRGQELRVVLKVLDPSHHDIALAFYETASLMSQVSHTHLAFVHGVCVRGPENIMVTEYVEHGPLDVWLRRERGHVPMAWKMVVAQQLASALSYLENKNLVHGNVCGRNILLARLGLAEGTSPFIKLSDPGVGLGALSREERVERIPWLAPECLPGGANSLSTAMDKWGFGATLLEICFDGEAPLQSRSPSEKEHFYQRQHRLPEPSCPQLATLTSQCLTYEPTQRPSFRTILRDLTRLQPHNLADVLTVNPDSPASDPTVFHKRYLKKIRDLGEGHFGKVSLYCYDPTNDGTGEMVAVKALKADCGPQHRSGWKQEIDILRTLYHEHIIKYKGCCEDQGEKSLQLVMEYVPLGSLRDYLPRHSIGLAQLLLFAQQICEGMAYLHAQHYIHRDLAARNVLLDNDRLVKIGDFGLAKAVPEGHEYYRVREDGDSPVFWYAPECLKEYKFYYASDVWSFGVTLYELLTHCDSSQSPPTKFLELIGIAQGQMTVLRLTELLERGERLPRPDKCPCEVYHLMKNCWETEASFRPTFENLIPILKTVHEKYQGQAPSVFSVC
row,Compound,TYK2 MSD OCI-LY10 Dmax %
1,CNc1cc(N2CCc3c(CN4CCC(N5CCC(C6CCN(C(=O)c7ccc(Cl)c(N8CCC(=O)NC8=O)c7)CC6)CC5)C(F)(F)C4)cccc32)nn2c(C(=O)N[C@@H]3CC[C@H]3OC)cnc12 (some centres unmarked) [I-1069],A (A (>90%))
2,CNc1cc(N2CCc3c(CN4CCC(N5CC6(CCN(C(=O)c7cc(Cl)c(C)c(N8CCC(=O)NC8=O)c7)CC6)C5)C(F)(F)C4)cccc32)nn2c(C(=O)N[C@@H]3CC[C@H]3OC)cnc12 (some centres unmarked) [I-1068],A (A (>90%))
3,CNc1cc(N2CCc3c(-c4ccc(CN5CCC(N6CC(N7CCN(c8ccc9c(c8)n(C)c(=O)n9C8CCC(=O)NC8=O)CC7)C6)C(F)(F)C5)cn4)cccc32)nn2c(C(=O)N[C@@H]3C[C@@H]3F)cnc12 (some centres unmarked) [I-282],B (B (90 to >75%))
4,CNc1cc(-c2ccc(N3CCC(CN4CC5(CCN(C(=O)c6ccc(Cl)c(N7CCC(=O)NC7=O)c6)CC5(F)F)C4)CC3)cc2)nn2c(C(=O)N[C@@H]3C[C@@H]3F)cnc12 [I-882],D (D (<50%))
5,CNc1cc(N2CCc3c(N4CCN(C5CC6(CCN(C(=O)c7ccc(Cl)c(N8CCC(=O)NC8=O)c7)CC6)C5)CC4)cccc32)nn2c(C(=O)N[C@@H]3C[C@@H]3F)cnc12 [I-283],D (D (<50%))
6,CNc1cc(N2CCc3c(-c4ncc(CN5CC6(CCN(C(=O)c7ccc(Cl)c(N8CCC(=O)NC8=O)c7)CC6)C5)cn4)cccc32)nn2c(C(=O)N[C@@H]3C[C@@H]3F)cnc12 [I-250],B (B (90 to >75%))
7,CNc1cc(N2CCc3c(-c4ccc(CN5CCC(N6CCN(c7ccc8c(c7)n(C)c(=O)n8C7CCC(=O)NC7=O)CC6)C(F)(F)C5)cn4)cc(F)cc32)nn2c(C(=O)NC3CC3)cnc12 (centres unmarked) [I-61],B (B (90 to >75%))
8,CNc1cc(N2CCc3c(CN4CCC(N5CCC(Oc6ccc(Cl)c(N7CCC(=O)NC7=O)c6)CC5)C(F)(F)C4)cccc32)nn2c(C(=O)N[C@@H]3C[C@@H]3F)cnc12 (some centres unmarked) [I-291],D (D (<50%))
9,CNc1cc(N2CCc3c(CCN4CCC5(CC4)CCN(C(=O)c4ccc(Cl)c(N6CCC(=O)NC6=O)c4)CC5)cccc32)nn2c(C(=O)N[C@@H]3C[C@@H]3F)cnc12 [I-895],D (D (<50%))
10,CNc1cc(N2CCc3c(CN4CCC(CN5CC6(CCN(C(=O)c7ccc(Cl)c(N8CCC(=O)NC8=O)c7)CC6)C5)CC4)cccc32)nn2c(C(=O)N[C@@H]3C[C@@H]3F)cnc12 [I-894],B (B (90 to >75%))
11,CNc1cc(N2CCc3c(-c4ncc(CN5CC6(CCN(C(=O)c7cc(C)c(Cl)c(N8CCC(=O)NC8=O)c7)CC6(F)F)C5)cc4F)cccc32)nn2c(C(=O)NC3CCC3)cnc12 [I-991],B (B (90 to >75%))
12,CNc1cc(N2CCc3c(CN4CCC(N5CCC6(CC5)CN(C(=O)c5cc(N7CCC(=O)NC7=O)c(Cl)c(C)n5)C6)C(F)(F)C4)cccc32)nn2c(C(=O)N[C@@H]3CC[C@H]3OC)cnc12 (some centres unmarked) [I-1156],B (B (90 to >75%))
13,CNc1cc(N2CCc3c(CN4CCC(CN5CCC6(CCN(C(=O)c7cc(C)c(Cl)c(N8CCC(=O)NC8=O)c7)CC6)C(F)(F)C5)C(F)(F)C4)cccc32)nn2c(C(=O)N[C@@H]3CC[C@H]3OC)cnc12 (some centres unmarked) [I-1122],A (A (>90%))
14,CNc1cc(N2CCc3c(CN4CCC(N5CCC6(CCN(C(=O)c7cc(N8CCC(=O)NC8=O)c(Cl)c(C)n7)CC6)CC5)C(F)(F)C4)cccc32)nn2c(C(=O)N[C@@H]3CC[C@H]3OC)cnc12 (some centres unmarked) [I-1157],A (A (>90%))
15,CNc1cc(N2CCc3c(-c4ccc(CN5CCC6(CCN(C(=O)c7ccc(Cl)c(N8CCC(=O)NC8=O)c7)CC6)C(F)(F)C5)cn4)cccc32)nn2c(C(=O)NC3CC3)cnc12 [I-57],B (B (90 to >75%))
16,CNc1cc(N2CCc3c(CN4CCC(N5CCN(CCc6ccc(Cl)c(C7CCC(=O)NC7=O)c6)CC5)C(F)(F)C4)cccc32)nn2c(C(=O)NC3CC3F)cnc12 (centres unmarked) [I-900],B (B (90 to >75%))

# Same assay, conditions: TYK2 degradation in OCI-LY10 cells, 4 to 24 hours incubation, read-out: TYK2 MSD OCI-LY10 Rel-DC50
row,Compound,DC50
1,CNc1cc(N2CCc3c(CN4CCC(N5CCC(C6CCN(C(=O)c7ccc(Cl)c(N8CCC(=O)NC8=O)c7)CC6)CC5)C(F)(F)C4)cccc32)nn2c(C(=O)N[C@@H]3CC[C@H]3OC)cnc12 (some centres unmarked) [I-1069],< 1 nM
2,CNc1cc(N2CCc3c(CN4CCC(N5CC6(CCN(C(=O)c7cc(Cl)c(C)c(N8CCC(=O)NC8=O)c7)CC6)C5)C(F)(F)C4)cccc32)nn2c(C(=O)N[C@@H]3CC[C@H]3OC)cnc12 (some centres unmarked) [I-1068],< 1 nM
3,CNc1cc(N2CCc3c(-c4ccc(CN5CCC(N6CC(N7CCN(c8ccc9c(c8)n(C)c(=O)n9C8CCC(=O)NC8=O)CC7)C6)C(F)(F)C5)cn4)cccc32)nn2c(C(=O)N[C@@H]3C[C@@H]3F)cnc12 (some centres unmarked) [I-282],< 1 nM
4,CNc1cc(-c2ccc(N3CCC(CN4CC5(CCN(C(=O)c6ccc(Cl)c(N7CCC(=O)NC7=O)c6)CC5(F)F)C4)CC3)cc2)nn2c(C(=O)N[C@@H]3C[C@@H]3F)cnc12 [I-882],> 100 nM
5,CNc1cc(N2CCc3c(N4CCN(C5CC6(CCN(C(=O)c7ccc(Cl)c(N8CCC(=O)NC8=O)c7)CC6)C5)CC4)cccc32)nn2c(C(=O)N[C@@H]3C[C@@H]3F)cnc12 [I-283],> 100 nM
6,CNc1cc(N2CCc3c(-c4ncc(CN5CC6(CCN(C(=O)c7ccc(Cl)c(N8CCC(=O)NC8=O)c7)CC6)C5)cn4)cccc32)nn2c(C(=O)N[C@@H]3C[C@@H]3F)cnc12 [I-250],< 1 nM
7,CNc1cc(N2CCc3c(-c4ccc(CN5CCC(N6CCN(c7ccc8c(c7)n(C)c(=O)n8C7CCC(=O)NC7=O)CC6)C(F)(F)C5)cn4)cc(F)cc32)nn2c(C(=O)NC3CC3)cnc12 (centres unmarked) [I-61],< 10 nM
8,CNc1cc(N2CCc3c(CN4CCC(N5CCC(Oc6ccc(Cl)c(N7CCC(=O)NC7=O)c6)CC5)C(F)(F)C4)cccc32)nn2c(C(=O)N[C@@H]3C[C@@H]3F)cnc12 (some centres unmarked) [I-291],> 100 nM
9,CNc1cc(N2CCc3c(CCN4CCC5(CC4)CCN(C(=O)c4ccc(Cl)c(N6CCC(=O)NC6=O)c4)CC5)cccc32)nn2c(C(=O)N[C@@H]3C[C@@H]3F)cnc12 [I-895],> 100 nM
10,CNc1cc(N2CCc3c(CN4CCC(CN5CC6(CCN(C(=O)c7ccc(Cl)c(N8CCC(=O)NC8=O)c7)CC6)C5)CC4)cccc32)nn2c(C(=O)N[C@@H]3C[C@@H]3F)cnc12 [I-894],< 10 nM
11,CNc1cc(N2CCc3c(-c4ncc(CN5CC6(CCN(C(=O)c7cc(C)c(Cl)c(N8CCC(=O)NC8=O)c7)CC6(F)F)C5)cc4F)cccc32)nn2c(C(=O)NC3CCC3)cnc12 [I-991],< 10 nM
12,CNc1cc(N2CCc3c(CN4CCC(N5CCC6(CC5)CN(C(=O)c5cc(N7CCC(=O)NC7=O)c(Cl)c(C)n5)C6)C(F)(F)C4)cccc32)nn2c(C(=O)N[C@@H]3CC[C@H]3OC)cnc12 (some centres unmarked) [I-1156],< 1 nM
13,CNc1cc(N2CCc3c(CN4CCC(CN5CCC6(CCN(C(=O)c7cc(C)c(Cl)c(N8CCC(=O)NC8=O)c7)CC6)C(F)(F)C5)C(F)(F)C4)cccc32)nn2c(C(=O)N[C@@H]3CC[C@H]3OC)cnc12 (some centres unmarked) [I-1122],< 1 nM
14,CNc1cc(N2CCc3c(CN4CCC(N5CCC6(CCN(C(=O)c7cc(N8CCC(=O)NC8=O)c(Cl)c(C)n7)CC6)CC5)C(F)(F)C4)cccc32)nn2c(C(=O)N[C@@H]3CC[C@H]3OC)cnc12 (some centres unmarked) [I-1157],< 1 nM
15,CNc1cc(N2CCc3c(-c4ccc(CN5CCC6(CCN(C(=O)c7ccc(Cl)c(N8CCC(=O)NC8=O)c7)CC6)C(F)(F)C5)cn4)cccc32)nn2c(C(=O)NC3CC3)cnc12 [I-57],< 10 nM
16,CNc1cc(N2CCc3c(CN4CCC(N5CCN(CCc6ccc(Cl)c(C7CCC(=O)NC7=O)c6)CC5)C(F)(F)C4)cccc32)nn2c(C(=O)NC3CC3F)cnc12 (centres unmarked) [I-900],< 10 nM
